From US7645763B2, “8-[3-amino-piperidin-1-yl]-xanthines, their preparation and their use as pharmaceutical composition” (Boehringer Ingelheim Pharma GmbH & Co. KG, priority 2004, dated 2010)

What was measured:
[1] = biological target: T1, DPP-IV (Homo sapiens, UniProt P27487); assay: DPP-IV assay with Caco-2 cell extract as DPP IV source; type: biochemical; conditions: extract of human colon carcinoma cell line Caco-2 as DPP IV source; AFC substrate 100 μM; 60 minutes at ambient temperature; 11-point curves; read-out: DPP IV inhibition IC50
T1 construct: an extract of the human colon carcinoma cell line Caco-2 is used as the DPP IV source; endogenous in cells; host or cells: Caco-2 (human colon carcinoma), differentiated to induce DPP-IV expression; Nonidet-P40 solubilized extract
Description: The differentiation of the cells in order to induce the DPP-IV expression was carried out in accordance with the description by Reiher et al. in an article entitled “Increased expression of intestinal cell line Caco-2” that appeared in Proc. Natl. Acad. Sci. Vol. 90, pp. 5757-5761 (1993). The cell extract was obtained from cells solubilized in a buffer (10 mM Tris HCl, 0.15 M NaCl, 0.04 t.i.u. aprotinin, 0.5% Nonidet-P40, pH 8.0) by centrifugation at 35,000 g for 30 minutes at 4° C. (to remove cell debris).
The DPP-IV assay was carried out as follows:
50 μl of substrate solution (AFC; AFC is amido-4-trifluoromethylcoumarin), final concentration 100 μM, was placed in black microtitre plates. 20 μl of assay buffer (final concentrations 50 mM Tris HCl pH 7.8, 50 mM NaCl, 1% DMSO) was pipetted therein. The reaction was started by the addition of 30 μl of solubilized Caco-2 protein (final concentration 0.14 μg of protein per well). The test substances under investigation were typically added prediluted to 20 μl, while the volume of assay buffer was then reduced accordingly. The reaction was carried out at ambient temperature, the incubation period was 60 minutes. Then the fluorescence was measured in a Victor 1420 Multilabel Counter, with the excitation wavelength at 405 nm and the emission wavelength at 535 nm. Dummy values (corresponding to 0% activity) were obtained in mixtures with no Caco-2 protein (volume replaced by assay buffer), control values (corresponding to 100% activity) were obtained in mixtures without any added substance. The potency of the test substances in question, expressed as IC50 values, were calculated from dosage/activity curves consisting of 11 measured points in each case.

[2] = Tolerability in rats after oral administration; type: in vivo; conditions: oral administration of 10 mg/kg

T1 sequence (P27487 whole entry): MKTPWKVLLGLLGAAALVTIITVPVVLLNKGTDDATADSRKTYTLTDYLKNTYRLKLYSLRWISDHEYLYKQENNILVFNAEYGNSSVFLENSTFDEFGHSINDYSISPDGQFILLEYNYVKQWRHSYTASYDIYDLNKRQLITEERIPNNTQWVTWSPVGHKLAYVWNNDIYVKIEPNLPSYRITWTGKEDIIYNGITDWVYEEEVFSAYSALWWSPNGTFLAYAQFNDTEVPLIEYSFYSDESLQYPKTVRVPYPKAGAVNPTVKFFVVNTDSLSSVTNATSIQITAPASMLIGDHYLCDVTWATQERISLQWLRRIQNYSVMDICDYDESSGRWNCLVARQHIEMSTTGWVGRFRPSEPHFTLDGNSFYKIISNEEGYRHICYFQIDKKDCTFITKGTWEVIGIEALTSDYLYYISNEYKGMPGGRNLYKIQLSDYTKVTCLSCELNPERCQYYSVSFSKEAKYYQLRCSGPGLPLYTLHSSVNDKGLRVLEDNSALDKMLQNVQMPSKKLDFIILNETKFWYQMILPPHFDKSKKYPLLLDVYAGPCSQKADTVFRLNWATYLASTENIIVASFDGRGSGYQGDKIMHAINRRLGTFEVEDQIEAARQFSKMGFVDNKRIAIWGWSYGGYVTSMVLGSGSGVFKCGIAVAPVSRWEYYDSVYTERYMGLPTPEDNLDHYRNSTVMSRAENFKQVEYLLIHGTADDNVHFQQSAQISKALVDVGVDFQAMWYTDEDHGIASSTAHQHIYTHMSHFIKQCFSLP

Row | SMILES | IC50 [1] | toxic side effects / tolerability [2]
1 | CC#CCn1c(N2CCC[C@@H](N)C2)nc2c1c(=O)n(Cc1nc(C)c3ccccc3n1)c(=O)n2-c1ccccc1 [Example 1(8), 1-[(4-methyl-quinazolin-2-yl)methyl]-3-phenyl-7-(2-butyn-1-yl)-8-((R)-3-amino-piperidin-1-yl)-xanthine] | 4.9 nM | no toxic side effects could be detected
2 | CC#CCn1c(N2CCC[C@@H](N)C2)nc2c1c(=O)n(Cc1ccc3ncccc3n1)c(=O)n2-c1ccccc1 [1(13), 1-[([1,5]naphthyridin-2-yl)methyl]-3-phenyl-7-(2-butyn-1-yl)-8-((R)-3-amino-piperidin-1-yl)-xanthine] | 4 nM | –

More lines, main results first:

Row | IC50 [1] | SMILES | toxic side effects / tolerability [2]
3 | 8.1 nM | CC#CCn1c(N2CCC[C@@H](N)C2)nc2c1c(=O)n(CC(=O)c1cccc(OC)c1)c(=O)n2-c1ccccc1 [1(10), 1-[2-(3-methoxy-phenyl)-2-oxo-ethyl]-3-phenyl-7-(2-butyn-1-yl)-8-((R)-3-amino-piperidin-1-yl)-xanthine] | –
4 | 2.7 nM | CC#CCn1c(N2CCC[C@@H](N)C2)nc2c1c(=O)n(Cc1nc(C)c3ccccc3n1)c(=O)n2C1CC1 [1(1), 1-[(4-methyl-quinazolin-2-yl)methyl]-3-cyclopropyl-7-(2-butyn-1-yl)-8-((R)-3-amino-piperidin-1-yl)-xanthine] | –
5 | 3.6 nM | CC#CCn1c(N2CCC[C@@H](N)C2)nc2c1c(=O)n(CC(=O)c1cccc3oc(=O)n(C)c13)c(=O)n2C1CC1 [Example 1, 1-[2-(3-Methyl-2-oxo-2,3-dihydro-benzoxazol-4-yl)-2-oxo-ethyl]-3-cyclopropyl-7-(2-butyn-1-yl)-8-((R)-3-amino-piperidin-1-yl)-xanthine] | –
